Reference: patent US20150376198A1, “MODULATORS OF VASOPRESSIN RECEPTORS WITH THERAPEUTIC POTENTIAL” (priority 2013, published 2015)
Like-named read-outs stand apart in the source and are kept apart here.

Legend:
[1] = molecular target: T1, human V1a receptor (Homo sapiens, UniProt P37288); test: Vasopressin V1a receptor binding assay (3H-AVP competition, CHO cells); settings: for inhibition at 10 µM: read-out: V1A binding, mean % inhibition
T1 construct: expressed in transfected cells; host or cells: CHO cells (G418-selected hV1a cell line)
T1 sequence (P37288 whole entry): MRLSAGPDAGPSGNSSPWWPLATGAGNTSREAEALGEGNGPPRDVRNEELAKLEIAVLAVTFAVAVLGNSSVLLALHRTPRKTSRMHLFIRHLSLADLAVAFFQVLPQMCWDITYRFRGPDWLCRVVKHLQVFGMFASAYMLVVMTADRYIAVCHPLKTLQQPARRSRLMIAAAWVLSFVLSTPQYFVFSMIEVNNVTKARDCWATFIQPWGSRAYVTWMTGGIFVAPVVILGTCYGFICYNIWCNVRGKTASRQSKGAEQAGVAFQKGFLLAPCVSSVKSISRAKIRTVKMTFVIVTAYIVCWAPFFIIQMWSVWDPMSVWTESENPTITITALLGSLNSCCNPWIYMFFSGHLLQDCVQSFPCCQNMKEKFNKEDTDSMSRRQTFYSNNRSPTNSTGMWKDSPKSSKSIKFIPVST
Procedure: (§1) Data represent Ki values (nM) or mean % inhibition (indicated as %) for exemplary compounds of formula (I) tested versus receptor subtypes.
(§2) The default concentration for primary binding experiments was 10 μM.
Vasopressin V1a Receptor Binding Assay.
A cell line expressing the human Via receptor in CHO cells is used. The hV1a cDNA sequence is described by Thibonnier et al., (1994), and the expression method is the same as described by Morel et al. (1992). The hV1a cell line is grown in alpha-MEM with 10% fetal bovine serum and 250 ug/ml G418 (Gibco, Grand Island, N.Y., USA). For competitive binding assay, hV1a cells are plated into 6-well culture plate at 1:10 dilution from a confluency flask, and maintained in culture for at least two days. Culture medium is then removed, cells washed with 2 ml binding buffer (35 mM Hepes, 0.25% BSA, 1× DMEM, PH=7.0). To each well, 990 μl binding buffer containing 1 nM 3H-AVP is added, followed by 10 μl series diluted Example compounds dissolved in DMSO. All incubations are done in triplicate and dose-inhibition curves consisting of total binding (DMSO) and 5 concentrations (0.1, 1.0, 10, 100, and 1000 nM) of test agents encompassing the IC50. 100 nM cold AVP (Sigma) is used to assess non-specific binding. Cells are incubated for 45 minutes at 37° C., assay mixture is removed and each well is washed three times with PBS (pH=7.4). 1 ml 2% SDS was added per well, plates were let sit for 30 minutes. The whole content of a well is transferred to a scintillation vial. Each well is rinsed with 0.5 ml PBS which is then added to the corresponding vial. Scintillation fluid (Ecoscint) is then added at 3 ml per vial. Samples are counted in a liquid scintillation counter (Beckman LS3801). IC50 values are calculated by Prism Curve fitting software.

[2] = molecular target: T2, OT receptor (Homo sapiens, UniProt P30559); test: OT receptor binding (primary binding at 10 μM and Ki); settings: for inhibition at 10 µM: read-out: OT binding, mean % inhibition
T2 sequence (P30559 1-389): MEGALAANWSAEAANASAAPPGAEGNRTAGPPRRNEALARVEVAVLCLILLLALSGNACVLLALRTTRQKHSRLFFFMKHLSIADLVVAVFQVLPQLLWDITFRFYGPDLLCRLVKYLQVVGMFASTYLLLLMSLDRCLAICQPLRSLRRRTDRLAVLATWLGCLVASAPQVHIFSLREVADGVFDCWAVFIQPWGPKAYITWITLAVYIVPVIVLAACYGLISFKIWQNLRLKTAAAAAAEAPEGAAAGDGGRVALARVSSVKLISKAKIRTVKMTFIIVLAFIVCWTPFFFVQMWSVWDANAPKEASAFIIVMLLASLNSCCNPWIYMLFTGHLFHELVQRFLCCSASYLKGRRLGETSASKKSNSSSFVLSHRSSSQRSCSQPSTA
Procedure: as §2
(§3) See Examples for further details.

[3] = molecular target: V2 receptor (Homo sapiens, UniProt P30518); test: V2 receptor binding (primary binding at 10 μM and Ki); settings: for inhibition at 10 µM: read-out: V2 binding, mean % inhibition
V2 receptor, sequence (P30518 whole entry): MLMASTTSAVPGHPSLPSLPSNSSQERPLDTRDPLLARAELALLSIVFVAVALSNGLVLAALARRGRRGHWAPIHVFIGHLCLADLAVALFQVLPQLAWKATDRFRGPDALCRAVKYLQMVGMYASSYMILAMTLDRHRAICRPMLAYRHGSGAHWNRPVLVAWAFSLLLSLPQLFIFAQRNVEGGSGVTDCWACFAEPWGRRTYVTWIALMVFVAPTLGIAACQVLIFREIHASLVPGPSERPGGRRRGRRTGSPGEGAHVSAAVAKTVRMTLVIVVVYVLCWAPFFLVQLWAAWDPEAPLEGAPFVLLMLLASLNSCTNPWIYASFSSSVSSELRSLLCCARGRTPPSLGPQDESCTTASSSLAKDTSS
Procedure: as §1, §2, §3

[4] = molecular target: human Arginine Vasopressin Receptor 1a (AVPR1a) (Homo sapiens, UniProt P37288); test: cell-based; settings: read-out: V1a-R IC50
human Arginine Vasopressin Receptor 1a (AVPR1a), sequence (P37288 whole entry): as the sequence (P37288 whole entry) above

## COc1ccc(NC(=O)N2CCN(c3ccccc3C)CC2)cc1 [Compound 1]
[1]
  inhibition at 10 µM: 34.1%
[2]; at 10 μM
  inhibition at 10 µM: 12.8%

## CCN(C(=O)N1CCN(c2ccccc2C)CC1)c1ccc(OC)cc1 [Compound 2]
[3]; at 10 μM
  inhibition at 10 µM: 33.6%
[1]
  Ki: 10 nM
[2]; read-out: OT binding Ki
  Ki: 13 nM

## COc1ccc(N(CC2CC2)C(=O)N2CCN(c3ccccc3C)CC2)cc1 [Compound 3]
[3]
  Ki: 708 nM
[1]
  Ki: 0.9 nM
[2]; read-out: OT binding Ki
  Ki: 1 nM

## COCCN(C(=O)N1CCN(c2ccccc2C)CC1)c1ccc(OC)cc1 [Compound 4]
[3]; at 10 μM
  inhibition at 10 µM: 24.5%
[1]
  Ki: 10 nM
[2]; read-out: OT binding Ki
  Ki: 21 nM

## Cc1ccccc1N1CCN(C(=O)N(CC2CC2)CC2CCCO2)CC1 (stereo not drawn) [Compound 5]
[3]; at 10 μM
  inhibition at 10 µM: 17.7%
[1]
  Ki: 785 nM
[2]; read-out: OT binding Ki
  Ki: 326 nM

## CCN(C(=O)N1CCN(c2ncccc2C(F)(F)F)CC1)c1ccc(OC)cc1 [Compound 6]
[3]; at 10 μM
  inhibition at 10 µM: 33%
[1]
  Ki: 113 nM
[2]; read-out: OT binding Ki
  Ki: 45 nM

## CCN(C(=O)N1CCN(Cc2ccccc2)CC1)c1ccc(OC)cc1 [Compound 8]
[1]
  inhibition at 10 µM: 35.1%
[2]; read-out: OT binding Ki
  Ki: 1180 nM

## CCN(C(=O)N1CCN(C(=O)c2ccccc2)CC1)c1ccc(OC)cc1 [Compound 9]
[2]; at 10 μM
  inhibition at 10 µM: 22.3%

## CCN(C(=O)N1CCN(C(=O)OC(C)(C)C)CC1)c1ccc(OC)cc1 [Compound 10]
[1]
  inhibition at 10 µM: 2.2%
[2]; at 10 μM
  inhibition at 10 µM: 17.1%

## Cc1cc(-c2nnc(C)n2-c2ccccc2)ccc1CNC(=O)N1CCN(Cc2cc(O)cc(O)c2)CC1 [Compound 11]
[2]; at 10 μM
  inhibition at 10 µM: 14.8%

## COC(=O)CC(NC(=O)OC(C)(C)C)C(=O)N1CCN(c2ccccc2C)CC1 (stereo not drawn) [Compound 12]
[2]; at 10 μM
  inhibition at 10 µM: 10.6%

## Cc1cc(C(=O)N(CC2CC2)CC2CCCO2)ccc1CNC(=O)N1CCN(Cc2cc(O)cc(O)c2)CC1 (stereo not drawn) [Compound 13]
[3]; at 10 μM
  inhibition at 10 µM: 13.6%
[2]; at 10 μM
  inhibition at 10 µM: 16.1%

## COc1ccc(-n2c(C)nnc2-c2ccc(CNC(=O)N3CCN(Cc4cc(O)cc(O)c4)CC3)c(C)c2)cn1 [Compound 14]
[3]; at 10 μM
  inhibition at 10 µM: 5.8%
[2]; at 10 μM
  inhibition at 10 µM: 19.6%

## O=C(OCc1ccccc1)N1CCC(C(=O)N(CC2CC2)CC2CCCO2)CC1 (stereo not drawn) [Compound 15]
[3]; at 10 μM
  inhibition at 10 µM: 12.8%
[1]
  inhibition at 10 µM: 19%
[2]; at 10 μM
  inhibition at 10 µM: 2.8%

## CCN(C(=O)N1CCN(c2ncccc2Cl)CC1)c1ccc(OC)cc1 [Compound 16]
[3]; at 10 μM
  inhibition at 10 µM: 12.7%
[1]
  Ki: 1160 nM
[2]; read-out: OT binding Ki
  Ki: 2320 nM

## CCN(C(=O)N1CCN(c2ccccn2)CC1)c1ccc(OC)cc1 [Compound 17]
[3]; at 10 μM
  inhibition at 10 µM: 17.9%
[1]
  Ki: 79 nM
[2]; read-out: OT binding Ki
  Ki: 118 nM

## CCN(C(=O)C1CCN(C(=O)OCc2ccccc2)CC1)c1ccc(OC)cc1 [Compound 18]
[3]
  inhibition at 10 µM: 12.8%
[1]
  inhibition at 10 µM: 19%
[2]
  inhibition at 10 µM: 2.8%

## CCN(C(=O)N1CCN(c2ncccc2C#N)CC1)c1ccc(OC)cc1 [Compound 19]
[3]; at 10 μM
  inhibition at 10 µM: 5.7%
[1]
  Ki: 880 nM
[2]; read-out: OT binding Ki
  Ki: 757 nM

## CCN(C(=O)N1CCCN(c2ncccc2C(F)(F)F)CC1)c1ccc(OC)cc1 [Compound 20]
[3]; at 10 μM
  inhibition at 10 µM: 33%
[1]
  Ki: 851 nM
[2]; read-out: OT binding Ki
  Ki: 329 nM

## CCN(C(=O)N1CCN(c2ncccc2C)CC1)c1ccc(OC)cc1 [Compound 21]
[3]; at 10 μM
  inhibition at 10 µM: 24.3%
[1]
  Ki: 116 nM
[2]; read-out: OT binding Ki
  Ki: 204 nM

## CCN(C(=O)N1CCN(c2ncccn2)CC1)c1ccc(OC)cc1 [Compound 22]
[3]; at 10 μM
  inhibition at 10 µM: 6.6%
[1]; read-out: V1A binding Ki
  Ki: 1590 nM
[2]; at 10 μM
  inhibition at 10 µM: 27.7%

## CCN(C(=O)C1CCN(c2ncccc2C(F)(F)F)CC1)c1ccc(OC)cc1 [Compound 24]
[3]; at 10 μM
  inhibition at 10 µM: 23.3%
[1]
  Ki: 1170 nM
[2]; read-out: OT binding Ki
  Ki: 265 nM

## CCN(C(=O)N1CCN(C(=O)C23CC4CC(CC(C4)C2)C3)CC1)c1ccc(OC)cc1 [Compound 25]
[3]; at 10 μM
  inhibition at 10 µM: 40.4%
[1]; read-out: V1A binding Ki
  Ki: 3880 nM
[2]; at 10 μM
  inhibition at 10 µM: 40.7%

## Cc1ccc(N(CC2CC2)C(=O)N2CCN(c3ccccc3C)CC2)cc1 [Compound 26]
[3]
  Ki: 1860 nM
[1]
  Ki: 3 nM
[2]; read-out: OT binding Ki
  Ki: 4.8 nM

## Cc1ccccc1N1CCN(C(=O)N(CC2CC2)c2ccc(Cl)cc2)CC1 [Compound 27]
[3]
  Ki: 3780 nM
[1]
  Ki: 1 nM
[2]; read-out: OT binding Ki
  Ki: 2.3 nM

## COc1ccccc1N(CC1CC1)C(=O)N1CCN(c2ccccc2C)CC1 [Compound 28]
[3]
  Ki: 5010 nM
[1]
  Ki: 107 nM
[2]; read-out: OT binding Ki
  Ki: 51 nM

## Cc1ccccc1N1CCN(C(=O)N(CC2CC2)c2ccc(OC(F)(F)F)cc2)CC1 [Compound 29]
[3]
  Ki: 159 nM
[1]
  Ki: 12 nM
[2]; read-out: OT binding Ki
  Ki: 61 nM

## COc1ccc(N(CC2CC2)C(=O)N2CCN(c3ccccc3C(F)(F)F)CC2)cc1 [Compound 30]
[3]
  Ki: 75 nM
[1]
  Ki: 11 nM
[2]; read-out: OT binding Ki
  Ki: 2.3 nM

## COc1ccc(N(CC2CC2)C(=O)N2CCN(c3cc(Cl)ccc3C)CC2)cc1 [Compound 31]
[3]
  Ki: 7340 nM
[1]
  Ki: 5 nM
[2]; read-out: OT binding Ki
  Ki: 6 nM

## COc1ccccc1N1CCN(C(=O)N(CC2CC2)c2ccc(OC(F)(F)F)cc2)CC1 [Compound 32]
[3]
  Ki: 1700 nM
[1]
  Ki: 11 nM
[2]; read-out: OT binding Ki
  Ki: 2.3 nM

## COc1ccc(N(CC2CC2)C(=O)N2CCN(c3ncc(Cl)cc3Cl)CC2)cc1 [Compound 33]
[3]
  Ki: 205 nM
[1]
  Ki: 3 nM
[2]; read-out: OT binding Ki
  Ki: 4.1 nM

## COc1ccc(N(CC2CC2)C(=O)C2CCN(Cc3ccccc3C(F)(F)F)C2)cc1 (stereo not drawn) [Compound 34]
[3]
  Ki: 542 nM
[1]
  Ki: 19 nM
[2]
  Ki: 24.5 nM

## COc1ccc(N(CC2CC2)C(=O)C2CCN(Cc3ccccc3Cl)C2)cc1 (stereo not drawn) [Compound 35]
[3]; at 10 μM
  inhibition at 10 µM: < 50%
[1]
  Ki: 71 nM
[2]; read-out: OT binding Ki
  Ki: 37.4 nM

## O=C(C1CCN(c2ncc(Cl)cc2F)CC1)N1CCCCc2cc(Cl)ccc21 [Compound 223]
[4]
  IC50: 19 nM

## O=C(C1CCN(c2ccc(F)cn2)CC1)N1CCCCc2cc(Cl)ccc21 [Compound 224]
[4]
  IC50: 11 nM

## O=C(C1CCN(c2ccc(Cl)cn2)CC1)N1CCCCc2cc(Cl)ccc21 [Compound 225]
[4]
  IC50: 11 nM

## O=C(C1CCN(c2ccc(C(F)(F)F)cn2)CC1)N1CCCCc2cc(Cl)ccc21 [Compound 226]
[4]
  IC50: 20 nM

## Cc1cc(C)nc(N2CCC(C(=O)N(CC3(C)COC3)c3ccc(Cl)cc3)CC2)n1 [Compound 227]
[4]
  IC50: 517 nM

## CCC(CC)N(C(=O)C1CCN(c2nc(C)cc(C)n2)CC1)c1ccc(Cl)cc1 [Compound 228]
[4]
  IC50: 4940 nM

## O=C1Nc2ccccc2C2(CCN(C(=O)N3CCCCc4cc(Cl)ccc43)CC2)O1 [V:292]
[4]
  IC50: 305 nM

## O=C(N1CCC2(CC1)OCc1ccccc12)N1CCCCc2cc(Cl)ccc21 [V:293]
[4]
  IC50: 78 nM
